{"source": "patent US12564610B2", "about": "“Human periventricular endothelial cell therapy for neuropsychiatric disorders” (The McLean Hospital Corporation, priority 2019, dated 2026)", "assay_type_in_all_cases": "cell-based", "key": {"[1]": {"tested_on": "human periventricular endothelial cells", "test": "Long-distance migration assay of periventricular endothelial cells with chemicals", "details": "compared to control (no chemicals added), five days", "source_text": "Long-distance migration assay: In preparation for migration assays, two-well silicone culture inserts (from ibidi GmbH, Cat #80209) were converted into one-well inserts by cutting with a sharp, sterile blade. Individual one-well inserts were placed in the middle of a 35 mm dish coated with Poly-Ornithine and Laminin. The boundary of the insert was marked on the back of each dish with a thin marker. For this assay, periventricular endothelial cells, control endothelial cells and endothelial cells derived without GABA and WNT7A were used at passage number P2 or P3, while GABA interneurons cultured for six weeks were used. 10^4 periventricular endothelial cells or endothelial cells derived without GABA and WNT7A were seeded in each insert in periventricular endothelial cell medium without GABA. Same number of GABAergic interneurons or control endothelial cells were seeded per insert in their respective manufacturer's recommended medium. The insert was removed after 48 hours and cells cultured for five days. After 5 days, cells were fixed and fluorescently labeled with an anti-human CD31 antibody (for endothelial cells) or an anti-human β-Tubulin antibody (for neurons) and DAPI. The distance between each cell body and the edge of the insert-boundary was measured using ImageJ.\nMigration assays with chemicals: To assess the roles of GABA or SDF-1/CXCL12 signaling on migration of human periventricular endothelial cells, 10^4 cells were seeded in one well insert and allowed to migrate in the presence of respective agonist or antagonist in periventricular endothelial cell medium (without GABA). After five days, cells were fixed, stained with anti-human CD31 antibody (Millipore), imaged and the distance migrated was calculated using ImageJ. To examine the effect of endothelial GABA or endothelial SDF-1/CXCL12 signaling on interneuron migration, human periventricular endothelial cells were seeded in 35 mm dish (10^5 cells/cm^2) and incubated with respective chemical for a period of 48 hours. […]"}, "[2]": {"tested_on": "GABAergic interneurons on pre-incubated human periventricular endothelial cells", "test": "Interneuron migration over chemical-pre-treated periventricular endothelial cells", "details": "interneurons migrate 48 hours, vs control", "experimental": "Migration assays with chemicals: To assess the roles of GABA or SDF-1/CXCL12 signaling on migration of human periventricular endothelial cells, 10^4 cells were seeded in one well insert and allowed to migrate in the presence of respective agonist or antagonist in periventricular endothelial cell medium (without GABA). After five days, cells were fixed, stained with anti-human CD31 antibody (Millipore), imaged and the distance migrated was calculated using ImageJ. To examine the effect of endothelial GABA or endothelial SDF-1/CXCL12 signaling on interneuron migration, human periventricular endothelial cells were seeded in 35 mm dish (10^5 cells/cm^2) and incubated with respective chemical for a period of 48 hours. 3×10^4 GABAergic interneurons were seeded on top of the periventricular endothelial cells using a one-well insert, and allowed to migrate over the pre-incubated periventricular endothelial cells for 2 days. Migration of neurons was assayed by staining with anti-human β-Tubulin antibody (Biolegend) and imaged. The concentration of chemicals used in the assays are as follows: muscimol (Sigma) 100 uM, BMI (Sigma) 100 uM, AMD3100 (Sigma) 50 μM, recombinant human SDF-1α (Peprotech) 40 nM. The chemicals were kept at −20° as concentrated stock solutions and diluted on the day of the experiment."}, "[3]": {"tested_on": "human periventricular endothelial cells", "test": "Junction protein immunostaining in differentiating periventricular endothelial cells (effect of GABA / WNT7A)", "experimental": "Endothelial cell differentiation and culture: H9 cells (WiCell, Madison, WI) were maintained in E8 media (Thermo Fisher Scientific) on Matrigel (BD Biosciences)-coated plates and passaged once a week with 0.5 mM EDTA (Thermo Fisher Scientific) in PBS. On day 0 of differentiation, H9 cells were dissociated with Accutase (Sigma), and plated at a density of 10^5 cells/cm^2 on Matrigel-coated plates. […] Rock inhibitor, Y-27632 (1004, Selleck Chemicals) was added for first 24 hours to improve cell survival. On day 2, cells were switched to vascular inducing medium composed of E6 medium (Thermo Fisher Scientific) containing BMP4 (50 ng/ml), SB431542 (5 μM, Cayman Chemicals), GABA (5 μM), WNT7A (500 ng/ml), FGF2 (100 ng/ml, Peprotech) and VEGF-A (50 ng/ml, Peprotech). On day 5, cells were split at 1:6 ratio using Accutase and plated on Matrigel-coated plates in periventricular endothelial cell (PVEC) medium consisting of E6 with VEGF-A (50 ng/ml), FGF2 (100 ng/ml) and GABA (5 μM). On day 7, periventricular endothelial cells were isolated from the mixed population by fluorescence-activated cell sorting (FACS) and seeded on Matrigel-coated plates in periventricular endothelial cells medium at a density of 6×10^5 cells/cm^2. For routine culturing, periventricular endothelial cells were dissociated using Accutase, and seeded on Matrigel-coated plates at a density of 6×10^5 cells/cm^2 (high density seeding) or 1.2×10^5 cells/cm^2 (low density seeding), with medium change every alternate day. Periventricular endothelial cells were cryopreserved after at least one passaging in freezing medium composed of 90% periventricular endothelial cells medium and 10% DMSO. As a source of neurons, we used human iPSC-derived GABAergic neurons from Cellular Dynamics (Madison, WI, Cat #R1013). As control for microarray analysis and for cell migration assays, we used human-iPSC derived endothelial cells from Cellular Dynamics (Madison WI, Cat #R1022), whose gene expression profile is similar to human aortic endothelial cells (HAECs; https://fujifilmedi.com/assets/CDI130925MIPTEC04.pdf). […]"}, "[4]": {"details": "endothelial cells treated 48 hours with 100 μM"}}}
{"smiles": "NCc1cc(=O)[nH]o1", "note": "[muscimol]", "values": [{"measurement": "periventricular endothelial cell migration", "setting": "[1]; 100 μM", "value": "significant increase in the number of migrating cells"}, {"measurement": "interneuron migration on pre-treated periventricular endothelial cells", "setting": "[2]; [4]", "value": "significantly higher migratory ability"}]}
{"smiles": "C[N+]1(C)CCc2cc3c(cc2[C@H]1[C@@H]1OC(=O)c2c1ccc1c2OCO1)OCO3.[I-]", "note": "[BMI, bicuculline methiodide]", "values": [{"measurement": "periventricular endothelial cell migration", "setting": "[1]; 100 μM", "value": "significant decrease in cell migration"}, {"measurement": "interneuron migration on pre-treated periventricular endothelial cells", "setting": "[2]; [4]", "value": "decreased migration"}]}
{"smiles": "c1cc(CN2CCCNCCNCCCNCC2)ccc1CN1CCCNCCNCCCNCC1", "note": "[AMD3100]", "values": [{"measurement": "periventricular endothelial cell migration", "setting": "[1]; 50 μM", "value": "no significant effect on endothelial cell migration"}, {"measurement": "interneuron migration on pre-treated periventricular endothelial cells", "setting": "[2]; endothelial cells treated 48 hours with 50 μM", "value": "No discernible effect on interneuron migration"}]}
{"smiles": "NCCCC(=O)O", "note": "[GABA, gamma amino-butyric acid]", "values": [{"measurement": "tight junction formation (Claudin5 and ZO-1 staining)", "setting": "[3]; 5 uM GABA, in comparison to 50 μM or 100 μM", "value": "increases tight junction formation"}, {"measurement": "localization of tight junction proteins Claudin 5 and ZO-1", "setting": "[3]; 50 uM or 100 μM GABA", "value": "disrupted the localization of tight junction proteins Claudin 5 and ZO-1"}, {"measurement": "expression of VE-Cadherin", "setting": "[3]; increase in GABA levels (5, 50, 100 μM)", "value": "not affected by increase in GABA levels"}]}
